{"source": "patent US20040002479A1", "about": "“Peptide analogues and uses thereof” (priority 2002, published 2004)", "assay": "Hydroxyapatite assay (hydroxyapatite adsorption chromatography, bone-targeting potential)", "assay_type": "physicochemical", "conditions": "corrected K=(retention time-void time)/void; TSK-Gel HA 1000 HPLC column; linear gradient 10 mM to 500 mM sodium phosphate, 0.15 N NaCl, pH 6.8", "method": "Hydroxyapatite is the principal mineral component of bone. Hydroxyapatite adsorption chromatography is used as an assay to evaluate the bone-targeting potential of both individual bone-targeting moieties (“monomers”) and of pharmaceuticals incorporating bone-targeting groups.\nMethod: The rentention time of a test compound is measured using a linear gradient from 10 mM sodium phosphate, 0.15 N NaCl, pH=6.8 to 500 mM sodium phosphate, 0.15 N NaCl, […] on a TSK-Gel HA 1000 high pressure liquid chromatography column (7.5 mm×75 mm). The rentention time of the compound is expressed in terms of K=(retention time-void time)/void. This K value is corrected using two reference compounds to correct from inter-column and inter-system variation to obtain a K′ value.\nReference Compounds: K′ values were determined for known bone targeted compounds, the bisphosphonate, alendronate and tetracycline.", "data": [{"smiles": "NCCCC(O)(P(=O)(O)O)P(=O)(O)O", "note": "[Alendronate, alendronate]", "values": [{"measurement": "K′ value", "value": 3.7}]}]}
